Source: paper PMC3158126, “Characterization of antigenic variants of hepatitis C virus in immune evasion” (Virology Journal, 2011)

Tests used:
HLA-DRB1*1501 molecules = HLA-DRB1*1501 molecules (Homo sapiens, UniProt P01903+P01911); conditions: cited from earlier work
Description: Our previous studies identified a CD4 epitope derived from the NS3 protein of HCV, NS3_358-375 [38]. […] Antigenic variants of the Th1 epitope were identified by RT-PCR, cloning and sequencing. Peptides of wild type NS3_358-375 and its variants (single or double amino acid substitutions) were synthesized and used in the current study (Table 1).

[1] = system: CD4+ cells from PBMC of HLA-DRB1*15-positive HCV-infected patients; assay: Intracellular cytokine staining and flow cytometry of purified CD4+ cells (Treg phenotypes), HCV+ patients; type: cell-based, human
Protocol: (§1) PBMCs were re-suspended at a concentration of 1 × 10^6 /ml in RPMI 1640 tissue culture medium as mentioned above in the description of the proliferation assay. 1 ml aliquots of PBMC were added to a 24-well tissue culture plate containing each wild type NS3_358-375 or variant pool, and medium alone. The concentrations of peptides are 5 μM for NS3_358-375 and 1 μM for each of variant peptides. After culturing for 66 hours, the PBMCs were treated with anti-human CD4 antibodies and magnetic micro-beads (Miltenyi Biotec, Auburn, CA) for positive selection of CD4 cells using a Magnetic Cell Separator (MACS, Miltenyi Biotec). The purity of CD4^+ cells obtained was 99.3% determined by Flow Cytometry.
(§2) The purified CD4^+ cells were treated with 0.5 ml of fix/permeabilizing solution (BD Pharmingen) for 10 minutes. After washing, the appropriate volume of specific fluorescent-labeled anti-CD25-ECD, anti-IFN-γ-FITC, anti-IL-10-PE, anti-TGF-β1-biotin and streptavidin-CyChrome were added to each of the tubes. One additional tube of CD4^+ cells were incubated with Foxp3-FITC, CD152 (CTLA-4)-PE and CD25-ECD. A tube of pooled CD4^+ cells from each culture was stained with isotype antibodies equivalent to each of the antibodies described above. In addition, four tubes of pooled CD4^+ cells were stained with each of the above antibodies alone as single-color controls which is necessary for color compensation. All tubes were incubated for 30 minutes in dark at room temperature. After washing, cells were re-suspended in 300 μl of wash buffer (BD Pharmingen), and a four color or three-color flow cytometry assay was performed within 24 hours at the Flow Cytometry Service Laboratory of the University of Illinois at Chicago. A total 1 × 10^5 cells were counted to determine the ratio of CD25^+, CD25^- and cytokine producing cells of each CD4^+ population.
Figure 3 Treg phenotypes induced by peptide NS3_358-375 and variant pools VP1 and VP2. Cell culture adn purification of CD4^+ cells and controls were the same as described in Figure 2. Intracellular staining and four-color flow cytometry using fluorescent-labeled antibodies to human CD25, IFN-γ, TGF-β and IL-10 were performed with purified CD4^+ cells. A pool from each test was used as an isotype control. A: Percentages of CD25^+ gated CD4^+ cells. […] B: Percentages of Th3 and Tr1 cells. Note that 58~67% of the CD25^+ cells were TGF-β^+ (sum of the upper two quadrants). A majority of the CD25^+IL-10^+ cells were also TGF-β^+ (the upper right quadrant). C: Percentages of CD25^- gated CD4^+ cells. D: Percentages of Th3 and Tr1 cells. […] Two representatives of eight experiments are shown. […]

[2] = system: CD4+ cells from PBMC of HLA-DRB1*15-positive healthy individuals; assay: Intracellular cytokine staining and flow cytometry of purified CD4+ cells (Treg phenotypes), HCV- healthy subjects; type: cell-based, human; conditions: median (range), n = 3 HLA-DRB1*15+ healthy subjects; NS3_358-375 5 μM or variant pool 1 μM each peptide, 66 hours
Protocol: as §1, §2
Supplementary file 1743-422X-8-377-S3.DOC: Additional file 3 Figure S2. CD4+CD25+ and CD4+CD25- Tregs of a HCV- healthy individual. Experiments, controls, and data analysis were the same as described in Figure 4. A: Percentages of CD25+ and CD25- gated CD4+ cells. B: Percentages of CD25+ Th3 and Tr1 cells. C: Percentages of CD25- Th3 and Tr1 cells. A single representative of three experiments is shown. Click here for file

[3] = system: CD4+ T cells of HCV-infected patient; assay: Foxp3 and CTLA-4 (CD152) expression on CD4+CD25+ and CD4+CD25- cells, flow cytometry; type: cell-based, human
Protocol: as §2
Figure 4 Characteristics of antigen-driven CD25^+ and CD25^- Tregs. Cellular culture and separation of CD4^+ T cells and controls were the same as described in Figure 2. The purified CD4^+ cells were stained with fluorescent-labeled antibodies for human CD25, CTLA-4 and Foxp3 followed by a flow cytometry assay. The effect of peptide NS3_358-375 and variant pools VP1 and VP2 on expression of Foxp3 (A) and CTLA-4 (B) on CD4^+CD25^- (blue) and CD4^+CD25^+ (red) T cells is shown. Median values for each population are shown in the boxes. One representative of two experiments is shown. […]

[4] = system: PBMC from a HCV-infected patient B3019; assay: T-cell proliferation (tritiated thymidine incorporation) with single wild type and variant peptides; type: cell-based, human; conditions: flow cytometry analysis of cells stimulated by wild type peptide
[5] = cells obtained at about 1.5 years of HCV infection, Figure S3
[6] = median (range), n = 6 HLA-DRB1*15+ HCV+ patients, NS3_358-375 5 μM or variant pool 1 μM each peptide, 66 hours

VIKGGRHLIFCHSKKKCD [NS3_358-375]
binding to HLA-DRB1*1501 (HLA-DRB1*1501 molecules): binds to HLA-DRB1*1501 well | ratio of CD4+CD25+ cells (CD25+ gated CD4+ cells) ([1]; Figure 3A, representative experiment, NS3_358-375 5 μM, pools 1 μM each peptide, listed as wild-type peptide): 26.0% | percentage of CD25-TGF-β+ cells among CD4+CD25- cells ([1]; Figure 3D, text value (upper two quadrants)): 12.7% | CD25-IL-10+ Tr1 cells ([1]; PBMCs from another DRB1*15+ patient infected with HCV over 20 years, Figure S4): 25% | CD25+ IL-10-secreting Tr1 cells [1, 5]: 2.9% | CD25- IL-10-secreting Tr1 cells [1, 5]: 7.6% | CD25+ of CD4+ cells, HCV+ patients [1, 6]: 21.6 (18 - 27) % | IL-10+ of CD4+CD25+ cells, HCV+ patients [1, 6]: 6.51 (3.0 - 11) % | TGFβ+ IL-10+ of CD4+CD25+ cells, HCV+ patients [1, 6]: 7.85 (5.0 - 12) % | TGFβ+ of CD4+CD25+ cells, HCV+ patients [1, 6]: 55.4 (37 - 59) % | CD25+ of CD4+ cells, HCV- subjects [2]: 10.1 (10 - 14) % | IL-10+ of CD4+CD25+ cells, HCV- subjects [2]: 2.95 (2.6 - 3.2) % | TGFβ+ IL-10+ of CD4+CD25+ cells, HCV- subjects [2]: 0.67 (0.5 - 2.5) % | TGFβ+ of CD4+CD25+ cells, HCV- subjects [2]: 5.04 (2.0 - 8.5) % | expression of Foxp3 and CTLA-4 compared to cells cultured with medium alone ([3]; CD25+ cells): down-regulated | Foxp3 level in CD4+CD25+ cells (median value) ([3]; Figure 4A, one representative of two experiments): 77.8 | CTLA-4 (CD152) level on CD4+CD25+ cells (median value) ([3]; Figure 4B, one representative of two experiments): 38.4 | proportion of peripheral proliferating cells that were CD4+ [4]: greater than 95%
